Data on 32 compounds can be found in patent US20240083857A1, “2-Methyl-Quinazolines” (Bayer Pharma Aktiengesellschaft, priority 2017, published 2024).

For assay [1], the target named is human SOS1 (nucleotide exchange of K-Ras^G12C) (Homo sapiens, UniProt Q07889). Briefly: Biochemical assay 2: K-Ras^G12C activation assay by hSOS1 at high GTP concentration (HTRF). As to conditions: high GTP; for IC50: read-out: Assay 2 (KRAS-Activation by SOS high GTP) activity expressed as IC50.
Assay [2] addresses human SOS1 (loading of human K-Ras^G12C-GDP with fluorescent GTP-analog) (Homo sapiens, UniProt Q07889). Kind of assay: Biochemical assay 3: K-Ras^G12C activation assay by hSOS1 (HTRF). The following applies: no GTP; for IC50: read-out: Assay 3 (KRAS-Activation by SOS no GTP) activity expressed as IC50; for inhibition at 20 µM: read-out: Assay 3 (KRAS-Activation by SOS no GTP) activity expressed as % inhibition at 20 μM. (TR-FRET usually uses a lanthanide donor and a delayed reading to cut background.)

In general, IC50 refers to the concentration that gives 50% inhibition. With `COc1cc2nc(C)nc(NC(C)c3cccc(Oc4ccccc4)c3)c2cc1OC` (single isomer, unassigned; enantiomer 1) [Example 228, 6,7-dimethoxy-2-methyl-N-[1-(3-phenoxyphenyl)ethyl]quinazolin-4-amine, Enantiomer 1], the IC50 in assay [1] stood at 647 nM; in assay [2], 1430 nM.
The like results for `COc1cc2nc(C)nc(NC(C)c3cccc4cccnc34)c2cc1OC` (single isomer, unassigned; enantiomer 1) [Example 230, 6,7-dimethoxy-2-methyl-N-[1-(quinolin-8-yl)ethyl]quinazolin-4-amine, Enantiomer 1] were, in that order, 6690 nM and 13300 nM.
Regarding `COc1cc2nc(C)nc(N[C@H](C)c3cccc(Cl)c3)c2cc1OC` [Example 2, N-[(1R)-1-(3-chlorophenyl)ethyl]-6,7-dimethoxy-2-methylquinazolin-4-amine], the values for the IC50 in assay [1] and in assay [2] were 207 nM and 537 nM, respectively.
As to `COC(=O)c1cc2c(C(C)Nc3nc(C)nc4cc(OC)c(OC)cc34)cccc2s1` (stereo not shown) [Example 3, methyl 4-{1-[(6,7-dimethoxy-2-methylquinazolin-4-yl)amino]ethyl}-1-benzothiophene-2-carboxylate], the values for the IC50 in assay [1] and in assay [2] were 115 nM and 231 nM, respectively.
For `COc1cc2nc(C)nc(NC(C)c3cccc4ccoc34)c2cc1OC` (stereo not shown) [Example 4, N-[1-(1-benzofuran-7-yl)ethyl]-6,7-dimethoxy-2-methylquinazolin-4-amine], in that order: 243 nM and 479 nM.
For `COc1cc2nc(C)nc(NC(C)c3ccc(F)c4[nH]ncc34)c2cc1OC` (stereo not shown) [Example 5, N-[1-(7-fluoro-1H-indazol-4-yl)ethyl]-6,7-dimethoxy-2-methylquinazolin-4-amine], the IC50 in assay [1] was 1300 nM; in assay [2], 5060 nM.
With `COc1cc2nc(C)nc(NC(C)c3cc(F)cc4[nH]ncc34)c2cc1OC` (stereo not shown) [Example 6, N-[1-(6-fluoro-1H-indazol-4-yl)ethyl]-6,7-dimethoxy-2-methylquinazolin-4-amine], the half-maximal inhibitory concentration (IC50) in assay [1] turned out to be 1860 nM; in assay [2] it was 4980 nM.
As usually defined, the inhibition is the drop in the measured response relative to a control, in per cent. Consider `COc1cc2nc(C)nc(NC(C)c3cccc4cn(C)nc34)c2cc1OC` (stereo not shown) [Example 8, 6,7-dimethoxy-2-methyl-N-[1-(2-methyl-2H-indazol-7-yl)ethyl]quinazolin-4-amine], for which the IC50 in assay [1] turned out to be 19800 nM. Further, in assay [2], the inhibition at 20 µM was found to be 14%.
Regarding `COc1cc2nc(C)nc(NC(C)c3cccc4nn(C)cc34)c2cc1OC` (stereo not shown) [Example 9, 6,7-dimethoxy-2-methyl-N-[1-(2-methyl-2H-indazol-4-yl)ethyl]quinazolin-4-amine], the IC50 worked out at 1370 nM in assay [1] and 5960 nM in assay [2].
Consider `COc1cc2nc(C)nc(NC(C)c3cccc4cnn(C)c34)c2cc1OC` (stereo not shown) [Example 10, 6,7-dimethoxy-2-methyl-N-[1-(1-methyl-1H-indazol-7-yl)ethyl]quinazolin-4-amine], for which the results for the IC50 in assay [1] and in assay [2] were 1270 nM and 6140 nM, respectively.
With `COc1cc2nc(C)nc(NC(C)c3cccc4c3CCCC4)c2cc1OC` (stereo not shown) [Example 11, 6,7-dimethoxy-2-methyl-N-[1-(5,6,7,8-tetrahydronaphthalen-1-yl)ethyl]quinazolin-4-amine], the IC50 in assay [1] was determined as 221 nM; in assay [2] it was 540 nM.
Take `COc1cc2nc(C)nc(N[C@H](C)c3ccc(F)cc3)c2cc1OC` [Example 12, N-[(1R)-1-(4-fluorophenyl)ethyl]-6,7-dimethoxy-2-methylquinazolin-4-amine]: the values for the IC50 in assay [1] and in assay [2] were 578 nM and 1290 nM, respectively.
For `COc1cc2nc(C)nc(NC(C)c3cccc4[nH]nc(C)c34)c2cc1OC` (stereo not shown) [Example 13, 6,7-dimethoxy-2-methyl-N-[1-(3-methyl-1H-indazol-4-yl)ethyl]quinazolin-4-amine], in that order: 2650 nM and 7730 nM.
On to `COc1cc2nc(C)nc(NC(C)c3cc4cccc(O)c4o3)c2cc1OC` (stereo not shown) [Example 28, 2-{-[(6,7-dimethoxy-2-methyquinazolin-4-yl)amino]ethyl}-1-benzofuran-7-ol], for which the inhibition at 20 µM in assay [1] (read-out: Assay 2 (KRAS-Activation by SOS high GTP) activity expressed as % inhibition at 20 μM, at 20 μM) is 8%; in assay [2] it was 46%.
Consider `COC(=O)c1ccccc1-c1ccc(C(C)Nc2nc(C)nc3cc(OC)c(OC)cc23)s1` (stereo not shown) [Example 178, methyl 2-(5-{1-[(6,7-dimethoxy-2-methylquinazolin-4-yl)amino]ethyl}thiophen-2-yl)benzoate], for which the IC50 in assay [1] came to 5110 nM; in assay [2], 7120 nM.
In the case of `COc1cc2nc(C)nc(NC(C)c3ccc(-c4ccccc4CN4CCC(C(N)=O)CC4)s3)c2cc1OC` (stereo not shown) [Example 179, 1-[2-(5-{1-[(6,7-dimethoxy-2-methylquinazolin-4-yl)amino]ethyl}thiophen-2-yl)benzyl]piperidine-4-carboxamide], the IC50 in assay [1] stood at 245 nM; in assay [2] it was 214 nM.
Turning to `COc1cc2nc(C)nc(NC(C)c3ccc(-c4ccccc4CCO)s3)c2cc1OC` (stereo not shown) [Example 180, 2-[2-(5-{1-[(6,7-dimethoxy-2-methylquinazolin-4-yl)amino]ethyl}thiophen-2-yl)phenyl]ethanol], the IC50 in assay [1] was 921 nM; in assay [2], 820 nM.
As for `COc1cc2nc(C)nc(NC(C)c3ccc(-c4cccc(CCO)c4)s3)c2cc1OC` (stereo not shown) [Example 181, 2-[3-(5-{1-[(6,7-dimethoxy-2-methylquinazolin-4-yl)amino]ethyl}thiophen-2-yl)phenyl]ethanol], in assay [1], the IC50 was 6510 nM. In addition, the inhibition at 20 µM in assay [2] turned out to be 45%.
`COc1cc2nc(C)nc(NC(C)c3ccc(-c4ccccc4CN4CC5(COC5)C4)s3)c2cc1OC` (stereo not shown) [Example 182, 6,7-di methoxy-2-methyl-N-[1-{5-[2-(2-oxa-6-azaspiro[3.3]hept-6-ylmethyl)phenyl]thiophen-2-yl}ethyl]quinazolin-4-amine]: the values for the IC50 in assay [1] and in assay [2] were 123 nM and 121 nM, respectively.
For `COc1cc2nc(C)nc(NC(C)c3cc(C)c(Br)s3)c2cc1OC` (stereo not shown) [Example 183, N-[1-(5-bromo-4-methylthiophen-2-yl)ethyl]-6,7-dimethoxy-2-methylquinazolin-4-amine], the IC50 came to 4200 nM in assay [1] and 9140 nM in assay [2].
In the case of `COc1cc2nc(C)nc(NC(C)c3ccc(-c4ccccc4CN4CCCC4)s3)c2cc1OC` (stereo not shown) [Example 184, 6,7-dimethoxy-2-methyl-N-[1-{5-[2-(pyrrolidin-1-ylmethyl)phenyl]thiophen-2-yl}ethyl]quinazolin-4-amine], the IC50 came to 106 nM in assay [1] and 122 nM in assay [2].
As for `COc1cc2nc(C)nc(NC(C)c3ccc(-c4ccccc4CN4CCC[C@H]4CN(C)C)s3)c2cc1OC` (stereo partly drawn) [Example 185, N-[1-{5-[2-({(2S)-[(dimethylamino)methyl]pyrrolidin-1-yl}methyl)phenyl]thiophen-2-yl}ethyl]-6,7-dimethoxy-2-methylquinazolin-4-amine], the IC50 in assay [1] was 344 nM; in assay [2], 323 nM.
As to `Cc1nc(N[C@H](C)c2cccc3ccccc23)c2ccccc2n1` [Example 186, 2-methyl-N-[(1R)-1-(naphthalen-1-yl)ethyl]quinazolin-4-amine], in assay [1], the IC50 came out at 3310 nM. Further, the inhibition at 20 µM in assay [2] was 22%.
In the case of `COc1cc2nc(C)nc(N[C@H](C)c3ccc(Br)cc3)c2cc1OC` [Example 187, N-[(1R)-1-(4-bromophenyl)ethyl]-6,7-dimethoxy-2-methylquinazolin-4-amine], the IC50 was determined as 562 nM in assay [1] and 1260 nM in assay [2].
Turning to `COc1cc2nc(C)nc(N[C@H](C)c3ccc(S(C)(=O)=O)cc3)c2cc1OC` [Example 188, 6,7-dimethoxy-2-methyl-N-{(1R)-1-[4-(methylsulfonyl)phenyl]ethyl}quinazolin-4-amine], in assay [1], the IC50 was determined as 16700 nM. Moreover, the inhibition at 20 µM in assay [2] came to 38%.
With `COc1cc2nc(C)nc(N[C@H](C)c3cccc(C)c3)c2cc1OC` [Example 190, 6,7-dimethoxy-2-methyl-N-[(1R)-1-(3-methylphenyl)ethyl]quinazolin-4-amine], the IC50 in assay [1] was 153 nM; in assay [2], 553 nM.
Regarding `COc1cc2nc(C)nc(N[C@H](C)c3cccc(Br)c3)c2cc1OC` [Example 191, N-[(1R)-1-(3-bromophenyl)ethyl]-6,7-dimethoxy-2-methylquinazolin-4-amine], the IC50 in assay [1] stood at 245 nM; in assay [2], 382 nM.
On to `COc1cc2nc(C)nc(N[C@H](C)c3ccc(C(N)=O)cc3)c2cc1OC` [Example 192, 4-{(1R)-1-[(6,7-dimethoxy-2-methylquinazolin-4-yl)amino]ethyl}benzamide], for which the IC50 in assay [1] came out at 4090 nM; in assay [2], 14200 nM.
Consider `COc1cc2nc(C)nc(N[C@H](C)c3cccc(-c4ccccc4)c3)c2cc1OC` [Example 193, N-[(1R)-1-(biphenyl-3-yl)ethyl]-6,7-dimethoxy-2-methylquinazolin-4-amine], for which the IC50 in assay [1] stood at 405 nM; in assay [2] it was 820 nM.
Consider `COc1cc2nc(C)nc(N[C@H](C)c3cccc(C#N)c3)c2cc1OC` [Example 194, 3-{(1R)-1-[(6,7-dimethoxy-2-methylquinazolin-4-yl)amino]ethyl}benzonitrile], for which the figures for the IC50 in assay [1] and in assay [2] were 594 nM and 2430 nM, respectively.
Consider `COc1cc2nc(C)nc(N[C@H](C)c3ccc(C)cc3)c2cc1OC` [Example 195, 6,7-dimethoxy-2-methyl-N-[(1R)-1-(4-methylphenyl)ethyl]quinazolin-4-amine], for which the IC50 worked out at 635 nM in assay [1] and 749 nM in assay [2].
Consider `COc1cc2nc(C)nc(N[C@H](C)c3ccc(-c4ccccc4)cc3)c2cc1OC` [Example 196, N-[(1R)-1-(biphenyl-4-yl)ethyl]-6,7-dimethoxy-2-methylquinazolin-4-amine], for which the IC50 in assay [1] is 1090 nM; in assay [2], 6100 nM.
